Reference: PubChem BioAssay (NCI)
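48-hour exposure; five concentrations; linearly interpolated endpoints. The concentration for full growth arrest is given as TGI.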

How the values were obtained:
Assay in all cases: NCI-60 cell line screen, 48 h
[1] = test system: 786-0 renal
[2] = test system: A498 renal
[3] = test system: A549 NSCLC
[4] = test system: ACHN renal
[5] = test system: BT-549 breast
[6] = test system: CAKI-1 renal
[7] = test system: COLO 205 colon
[8] = test system: DU-145 prostate
[9] = test system: EKVX NSCLC
[10] = test system: HCC-2998 colon
[11] = test system: HCT-116 colon
[12] = test system: HCT-15 colon
[13] = test system: HOP-62 NSCLC
[14] = test system: HT29 colon
[15] = test system: IGROV1 ovarian
[16] = test system: K-562 leukemia
[17] = test system: KM12 colon
[18] = test system: LOX IMVI melanoma
[19] = test system: M14 melanoma
[20] = test system: MALME-3M melanoma
[21] = test system: MCF7 breast
[22] = test system: MDA-MB-231 breast
[23] = test system: MDA-MB-435
[24] = test system: MDA-N
[25] = test system: MOLT-4 leukemia
[26] = test system: NCI-H226 lung
[27] = test system: NCI-H23 lung
[28] = test system: NCI-H460 lung
[29] = test system: NCI-H522 lung
[30] = test system: NCI/ADR-RES ovarian
[31] = test system: OVCAR-4 ovarian
[32] = test system: OVCAR-5 ovarian
[33] = test system: OVCAR-8 ovarian
[34] = test system: PC-3 prostate
[35] = test system: RPMI-8226 leukemia
[36] = test system: RXF 393 renal
[37] = test system: SF-268 CNS
[38] = test system: SF-295 CNS
[39] = test system: SF-539 CNS
[40] = test system: SK-MEL-2 melanoma
[41] = test system: SK-MEL-28 melanoma
[42] = test system: SK-MEL-5 melanoma
[43] = test system: SK-OV-3 ovarian
[44] = test system: SN12C renal
[45] = test system: SNB-19 CNS
[46] = test system: SNB-75 CNS
[47] = test system: SR leukemia
[48] = test system: SW-620 colon
[49] = test system: T-47D breast
[50] = test system: TK-10 renal
[51] = test system: U251 CNS
[52] = test system: UACC-257 melanoma
[53] = test system: UACC-62 melanoma
[54] = test system: UO-31 renal

SMILES: C=C(C(=O)OC)[C@@H]1C[C@@H](OC(C)=O)C2=C[C@H](C[C@@]3(C)O[C@@H]3C3=CC(C)=C(O3)[C@H]1OC(C)=O)OC2=O
- TGI [1]: 49.1 µM
- TGI [2]: 33.8 µM
- TGI [3]: > 100 µM
- TGI [4]: 49.4 µM
- TGI [5]: 31.3 µM
- TGI [6]: 21.2 µM
- TGI [7]: 25.8 µM
- TGI [8]: > 100 µM
- TGI [9]: 38.9 µM
- TGI [10]: 43 µM
- TGI [11]: 24.3 µM
- TGI [12]: > 100 µM
- TGI [13]: 67.2 µM
- TGI [14]: 76.9 µM
- TGI [15]: 57.1 µM
- TGI [16]: 24.9 µM
- TGI [17]: 43.7 µM
- TGI [18]: 41.8 µM
- TGI [19]: 43.2 µM
- TGI [20]: 30.7 µM
- TGI [21]: 35.3 µM
- TGI [22]: 44.1 µM
- TGI [23]: 37.9 µM
- TGI [24]: 50.8 µM
- TGI [25]: 6.72 µM
- TGI [26]: > 100 µM
- TGI [27]: 35.5 µM
- TGI [28]: 64.5 µM
- TGI [29]: 5.83 µM
- TGI [30]: > 100 µM
- TGI [31]: > 100 µM
- TGI [32]: 36.6 µM
- TGI [33]: > 100 µM
- TGI [34]: > 100 µM
- TGI [35]: 21.4 µM
- TGI [36]: 44 µM
- TGI [37]: > 100 µM
- TGI [38]: 88.5 µM
- TGI [39]: 79 µM
- TGI [40]: > 100 µM
- TGI [41]: 33.2 µM
- TGI [42]: 29.7 µM
- TGI [43]: > 100 µM
- TGI [44]: 56.8 µM
- TGI [45]: > 100 µM
- TGI [46]: > 100 µM
- TGI [47]: 37.6 µM
- TGI [48]: 28.4 µM
- TGI [49]: 33.8 µM
- TGI [50]: 31.7 µM
- TGI [51]: 71.1 µM
- TGI [52]: 44.3 µM
- TGI [53]: 40.9 µM
- TGI [54]: 36.3 µM
